From patent US9783541B2, “5′-nucleotidase inhibitors and therapeutic uses thereof” (Centre National de la Recherche Scientifique-CNRS, priority 2013, dated 2017)
Where two headings read alike, the source gives them in different places.

Tests used:
[1] = biological target: purified recombinant cN-II enzyme (Homo sapiens, UniProt P49902); experiment: cN-II inhibition test (inorganic phosphate from IMP, Malachite green); format: biochemical; set-up: key to Inhibition strength (Strong/Medium/Weak): Strong; Medium; Weak
Description: The activity of cN-II is measured in vitro by following the appearance of the inorganic phosphate produced during the enzymatic reaction. The purified recombinant cN-II enzyme is used in the presence of its preferential substrate, inosine 5′-monophosphate (IMP). During the hydrolysis reaction, inosine and inorganic phosphate are produced from the IMP. This phosphate is then assayed by means of a colorimetric method using Malachite green (kit sold by the company Gentaur): the reading of absorbence at 630 nm makes it possible to quantify the inorganic phosphate.
The reagents used are: 50 mM imidazole buffer, pH=6.5, 500 mM NaCl and 10 mM MgCl2. The enzyme (cN-II) concentration is 0.1 μM and the IMP concentration is 100 μM.
A phosphate concentration range is performed in parallel in order to quantify the phosphate produced during the reaction.

RL cancer line = experiment: Synergy MTT test with cytotoxic nucleoside analogs; format: cell-based, Human; settings: for Synergy MTT with cladribine / Synergy MTT with clofarabine / Synergy MTT with fludarabine: RL cells, 72 h, constant ratio, CI95; for Synergy MTT with cladribine: partner cladribine; for Synergy MTT with clofarabine: partner clofarabine; for Synergy MTT with fludarabine: partner fludarabine; for synergistic effect with at least one of the three anticancer agents: cladribine, clofarabine, fludarabine
Description: (§2) After 72 h of incubation, the living cells are quantified using the MTT reagent.
(§3) The inhibitory concentration 50 (IC50) and the combination index (CI95) are calculated with the CompuSyn software 1.0 (ComboSyn, Inc., USA).
The CI95 is calculated according to the method of Chou and Talalay^3 with a formula which takes into account the concentrations of the two compounds and the fraction affected at these concentrations (i.e. the dead cells).

[2] = tested on: RL human follicular lymphoma cell line; experiment: cytotoxicity on RL cancer line (MTT, IC50); settings: for IC50: read-out: RL cancer line IC50, 72 h incubation, MTT
Description: as §2, §3

cells of AML patients = experiment: ex vivo cytotoxicity, Annexin V / propidium iodide flow cytometry, AML patient cells; format: cell-based, human; settings: 100 μM, 24 hours
Description: (§1) Peripheral blood was recovered from patients suffering from chronic […] leukemia (LLC) or from acute myeloid leukemia (AML) in heparinized tubes. […] The cells having experienced an effect of the incubations are labeled with Annexin V alone or with propidium iodide (see FIG. 6).

cells of CLL patients = experiment: ex vivo cytotoxicity, Annexin V / propidium iodide flow cytometry, CLL patient cells; format: cell-based, human; settings: 10 μM, 24 hours
Description: as §1

[3] = 200 μM compound, 0.1 μM cN-II, 100 μM IMP, pH 6.5, 37° C.

Chain of purified recombinant cN-II enzyme (P49902 whole entry): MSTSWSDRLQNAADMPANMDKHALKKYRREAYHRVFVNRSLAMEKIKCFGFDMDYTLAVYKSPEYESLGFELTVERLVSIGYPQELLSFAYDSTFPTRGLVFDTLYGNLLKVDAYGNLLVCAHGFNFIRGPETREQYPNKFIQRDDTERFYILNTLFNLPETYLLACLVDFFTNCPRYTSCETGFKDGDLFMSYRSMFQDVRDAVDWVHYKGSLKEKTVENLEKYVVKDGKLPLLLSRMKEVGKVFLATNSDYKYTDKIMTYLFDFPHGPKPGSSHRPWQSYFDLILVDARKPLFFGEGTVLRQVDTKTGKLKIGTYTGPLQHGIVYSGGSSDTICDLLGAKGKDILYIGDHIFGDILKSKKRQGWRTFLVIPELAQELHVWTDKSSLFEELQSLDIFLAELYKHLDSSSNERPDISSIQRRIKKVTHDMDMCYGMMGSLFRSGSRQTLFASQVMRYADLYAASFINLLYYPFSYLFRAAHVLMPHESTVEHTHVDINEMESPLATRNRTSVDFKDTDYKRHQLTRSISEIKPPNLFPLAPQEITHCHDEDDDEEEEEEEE

| Compound | Synergy MTT with cladribine (RL cancer line) | Synergy MTT with fludarabine (RL cancer line) | synergistic effect with at least one of the three anticancer agents (RL cancer line) | IC50 [2] [µM] | Inhibition cN-II in vitro (200 μM) [1, 3] | Inhibition strength (Strong/Medium/Weak) ([1]; cN-II) | also measured |
| --- | --- | --- | --- | --- | --- | --- | --- |
| 9-(phenylmethyl)-9H-purin-6-yl-[1,1′-biphenyl]-3-carboxamide [(20)] | Antagonistic with (values above 1.1 indicate antagonism) | Synergy with (CI95 values below 0.9 indicate synergy between the two compounds) | synergistic effect |  |  |  | Inhibition strength (Strong/Medium/Weak) [1]: S; Inhibition cN-II in vitro (200 μM) ([1]; pH 6.5): 58 +/−19%; Synergy MTT with clofarabine (RL cancer line): Antagonistic with (values above 1.1 indicate antagonism) |
| O=C(Nc1ncnc2ncn(Cc3ccccc3)c12)c1cccc(-c2ccccc2)c1 [(19)] | Synergy with (CI95 values below 0.9 indicate synergy between the two compounds) | Synergy with (CI95 values below 0.9 indicate synergy between the two compounds) | synergistic effect | 60 | 68 +/− 15% | S |  |
| O=C(Nc1ncnc2ncn(COCc3ccccc3)c12)c1cccc(-c2ccccc2)c1 [(21)] | Synergy with (CI95 values below 0.9 indicate synergy between the two compounds) | Additive with (values between 0.9 and 1.1 indicate additivity) | synergistic effect | 36 | 50 +/− 2% | M | intrinsic cytotoxic activity, IC50 values ([2]; cell model used (RL)): a few micromolar to a few tens of micromolar; Synergy MTT with clofarabine (RL cancer line): Synergy with (CI95 values below 0.9 indicate synergy between the two compounds) |
| O=C(Nc1ncnc2c1ncn2COCc1ccccc1)c1cccc(-c2ccccc2)c1 [(22), 9-[(phenylmethoxy)methyl]-9H-purin-6-yl-[1,1′-biphenyl]-3-carboxamide] |  |  |  | 188 | 43 +/− 7% | M |  |
| O=S(=O)(Nc1ncnc2[nH]cnc12)c1ccc(-c2ccccc2)cc1 [(33), 9H-purin-6-yl-[1,1′-biphenyl]-4-sulfonamide] |  |  |  | 195 | 70 +/− 5% | S |  |
| Nc1ccn([C@@H]2O[C@H](CO)[C@@H](O)[C@@H]2O)c(=O)n1 [cytarabine] |  |  |  |  |  |  | Annexin V labeling, AML samples, mean over the five samples (cells of AML patients): 44.5% |
| Nc1nc(F)nc2c1ncn2[C@@H]1O[C@H](CO)[C@@H](O)[C@@H]1O [fludarabine] |  |  |  |  |  |  | Annexin V labeling, CLL samples (cells of CLL patients): 45.8% |
| (naphthalene-1-carbonylamino-9H-purin-6-yl)methylphosphonic acid [(31)] |  |  |  | 250 | 10% | W |  |
| (naphthalene-2-carbonylamino-9H-purin-6-yl)methylphosphonic acid [(32)] |  |  |  | 145 | 10% | W |  |
